The source of these data is publication PMC5786060, “Discovery of new molecular entities able to strongly interfere with Hsp90 C-terminal domain” (Scientific Reports, 2018).

For orientation: Kd means the equilibrium constant for the complex coming apart. One may read the IC50 as the concentration needed to halve the response being measured.

For one data set, the target named is T1, recombinant human Hsp90α (Homo sapiens, UniProt P07900).
T1 construct: purchased Abcam
The data set is described as follows: SPR binding to immobilized recombinant Hsp90α. The note with it: Biacore 3000, immobilized full length Hsp90α, 25 °C, 1:1 Langmuir model, read-out: KD (nM) ± SD. Here is the method:
Recombinant human Hsp90α was purchased from Abcam (Abcam, Cambridge, UK). […] SPR analyses were carried out according to our previously published data[25]–[28],[32],[50]. Surface Plasmon Resonance Spectroscopy (SPR) analyses were performed to determine binding of various molecules to full length Hsp90α using a Biacore 3000 optical biosensor equipped with research-grade CM5 sensor chips (GE Healthcare). Hsp90α was coupled to the surface of a CM5 sensor chip using standard amine-coupling protocols, according to the manufacturer’s instructions.
The protein (100 µg mL^−1 in 10 mM CH3COONa, pH 5.0) was immobilized on individual sensor chip surfaces at a flow rate of 5 µL min^−1 to obtain densities of 8–12 kRU. For the experiments a recombinant Hsp90α surface, a BSA surface and one unmodified reference surface were prepared for simultaneous analyses. […] For each molecule a six-point concentration series were set up, spanning […], and for each sample the complete binding study was performed using triplicate aliquots. Changes in mass, due to the binding response, were recorded as resonance units (RU). To obtain the dissociation constant (KD) (Table 1), these responses were fit to a 1:1 Langmuir binding model by nonlinear regression using the BiaEvaluation software program provided by GE Healthcare. Simple interactions were suitably fitted to a single-site bimolecular interaction model (A + B = AB), yielding a single KD. (Table 1). SPR experiments were performed at 25 °C, using a flow rate of 50 µL min^−1, with 60 s monitoring of association and 300 s monitoring of dissociation.

Data set [1] has as its system U937 (human monocytic cell line from histiocytic lymphoma). The data set is described as follows: Anti-proliferation MTT assay, U937 cells. It is filed as cell-based. As to conditions: Homo sapiens. Here is the method: (§1) Jurkat and U937 (2 × 10^4 /well) cells were seeded in triplicate in 96 well−plates and incubated for the 24 h or 48 h in the absence or presence of different concentrations of compounds 1, 4–5, 7–15, 21–22, 26 (concentration between 10 µM to 100 µM) or Novobiocin (concentration between 50 µM to 500 µM). Stock solutions of compounds (100 mM in DMSO) were diluted just before addition to the sterile culture medium and the final concentration of DMSO was 0.15% (v/v).
(§2) The number of viable cells was determined by using a […] (MTT, Sigma-Aldrich) conversion assay, according to the method described by Terracciano et al. 2016[27],[28]. After the indicated treatment, the cells were incubated for additional 3 h at 37 °C, with 25 µL of MTT (5 mg/mL in PBS). The formazan crystals thus formed were dissolved in 100 μl of buffer containing 50% (v/v) N,N-dimethylformamide, 20% SDS (pH 4.5). The absorbance was read at 570 nm using an Absorbance Microplate Reader (Titertek multiskan MCC7340, LabSystems, Vienna, VA, USA) equipped with a 620 nm filter. The cell population growth inhibition was also tested by cytometric counting (trypan blu exclusion). IC50 values were calculated from cell viability dose−response curves and defined as the concentration resulting in 50% inhibition of cell survival, compared to control cells treated with DMSO (see Supplementary Material Tables S2 and S3).

The subject of data set [2] is Jurkat (human leukemic T lymphocyte). The data set is described as follows: Anti-proliferation MTT assay, Jurkat cells. The note with it: Homo sapiens. Type of data set: cell-based. Here is the method:
as §1, §2
(In general: Tetrazolium assays rely on reduction of a dye to a coloured formazan, in cell work by metabolically active cells.)

Data set [3] concerns PHA-stimulated human peripheral blood mononuclear cells (PBMC). The data set is described as follows: Cytotoxicity on PHA-stimulated PBMC by trypan blue count. The note with it: 25 µM, DMSO control about 5 ± 0.9%. It is filed as cell-based. Here is the method: Human peripheral blood mononuclear cells (PBMC), induced to proliferate by phytohemagglutinin (PHA) (10 µg/ml), were used to evaluate cytotoxic effects by trypan blue count of compound 7 and 10. Human peripheral blood mononuclear cells (PBMC) were isolated from buffy coats of healthy donors (kindly provided by the Blood Center of the Hospital of Battipaglia, Salerno, Italy) by using standard Ficoll−Hypaque gradients.

The subject of another data set is Jurkat cells. Briefly: Cell cycle distribution / hypodiploid cells by PI flow cytometry. It is filed as cell-based, human. Here is the method:
Cell DNA content was measured by propidium iodide (PI) incorporation into permeabilized cells, as described by Nicoletti et al. Briefly, the Jurkat cells were treated for 24 h or 48 h with compounds used at the different concentrations. In particular, the compounds 7 or 10 were used at 25 or 50 µM, novobiocin was used at 50, 100 or 200 µM. The treated cells were harvested and incubated with a PI solution (0.1% sodium citrate, 0.1% Triton X-100 and 50 μg/ml of prodium iodide, Sigma-Aldrich, 10 μg/ml Rnase A) for 30 min at room temperature.
The cells were analyzed using FACScalibur flow cytometry (Becton Dickinson, San Josè, CA. The distribution of cells in cell cycle phases was determined using ModFit LT analysis software (Becton Dickinson). The percentage of apoptotic cells is represented as the percentage of hypodiploid cells accumulated at the sub G0/G1 phase of the cell cycle and was quantified using the CellQuest software (Becton Dickinson). Results were expressed as a mean ± SD of three experiments performed in triplicate.
On the technique in general: Flow cytometry measures light scatter and fluorescence of single cells or particles in a stream.

Data set [4] has as its system Hsp90-dependent client proteins Raf-1, p-Akt, p-Erk and p53; Hsc70, Hsp90, Hsp70 in Jurkat cells. Briefly: Western blot of Hsp90 client proteins and heat shock proteins. It is filed as cell-based, human. As to conditions: 25 and 50 µM, 24 h, western blot densitometry. Here is the method:
Following the treatment, the cells were trypsinized and homogenized on ice in RIPA lysis buffer (50 mM Hepes, 10 mM EDTA, 150 mM NaCl, 1% NP-40, 0.5% sodium deoxycholate, 0.1% SDS, pH 7.4), supplemented with protease inhibitors cocktail (Sigma-Aldrich). After centrifugation at 4 °C to removed cell debris, an equal protein amount (40 µg) was separated by SDS-PAGE under denatured reducing conditions and was then transferred to nitrocellulose membranes. The blots were blocked with 3% BSA and were incubated at 4 °C overnight with primary antibodies: anti-Hsp 70; anti-Hsp 90α/ß, anti-Raf1, anti-pAkt, anti Erk, anti pErk, anti-p53, anti Hsc70, anti GRP94, anti cyclin A antibodies (Santa Cruz Biotechnology, Inc., Delaware, CA, USA), anti-actin antibody (Sigma-Aldrich) anti CDK2, anti Cyclin D1 and anti CDK4 antibodies (Cell Signaling Technology, Leiden, Netherlands). Appropriate peroxidase-conjugate secondary antibodies were used to detect primary antibodies, and enzymatic signals were visualized by chemiluminescence reagent Pierce ECL (Thermo Scientific, Rockford, IL, USA). Quantitative densitometry analyses were performed using a ImageQuant LAS 4000 system (GE Healthcare Life Sciences,NY, USA).
For orientation: In western blotting, separated proteins are transferred to a membrane and probed.

Like-named read-outs stand apart in the source and are kept apart here.

Regarding `O=C(CCCCCn1c(=O)[nH]c2ccccc2c1=O)Nc1ccc(Br)cc1F` [Compound 10], on recombinant human Hsp90α, the dissociation constant Kd amounted to 20.8 ± 8.7 nM. Also, the IC50 was 52 µM in data set [1] (U-937, 24 h, read-out: IC50 (µM) 24h); 50 µM in data set [1] (U-937, 48 h, read-out: IC50 (µM) 48h); 26.1 µM in data set [2] (24 h, read-out: IC50 (µM) 24h); 23.5 µM in data set [2] (48 h, read-out: IC50 (µM) 48h). For the same compound, the values for the non-viable cells percentage result in data set [3] (24 h) and in data set [3] (48 h) were “about 7 ± 1.3%” and ~9 ± 1.8%, respectively. The “hypodiploid cells (subG0/G1 DNA content)” value in the data set with Jurkat cells (100 µM, 48 h) is reported as 10%. Also, in the data set with Jurkat cells (after 24 h, retained after 48 h), the “cell cycle phase in which cells are arrested” value is recorded as “S phase”. Besides, the “degradation of Hsp90-dependent client proteins Raf-1, p-Akt, p-Erk and p53” value in data set [4] is recorded as 50–60%. Further, the “reduction of Hsc70” value in data set [4] is listed as 15–20%.
